Data reported in the supplement of paper PMC10307832.

Tests used:
Test in all cases: relative viability (nuclei count vs DMSO), 5 days (fraction); higher = more cells survive
Imatinib + Luminespib = compound: Cc1ccc(NC(=O)c2ccc(CN3CCN(C)CC3)cc2)cc1Nc1nccc(-c2cccnc2)n1 [Imatinib] + CCNC(=O)c1noc(-c2cc(C(C)C)c(O)cc2O)c1-c1ccc(CN2CCOCC2)cc1 [Luminespib] (partner 0.01 µM)
Procedure, shortened: (§1)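 One day after seeding in 1536-well plates, lung cancer cell lines were dosed by pin tool. Dosing was either single-drug or a fixed anchor-drug dose plus five library-drug doses (not always all listed) in √10 steps. After 5 days, nuclei were stained in one fix-and-stain step and counted on 4× images, and relative viability is the nuclei count of treated wells over that of vehicle wells, given as the median of duplicate plates.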

Imatinib + Olaparib = compound: Cc1ccc(NC(=O)c2ccc(CN3CCN(C)CC3)cc2)cc1Nc1nccc(-c2cccnc2)n1 [Imatinib] + O=C(c1cc(Cc2n[nH]c(=O)c3ccccc23)ccc1F)N1CCN(C(=O)C2CC2)CC1 [Olaparib] (partner 8 µM)
Procedure, shortened: as §1

Imatinib + OSI-027 = compound: Cc1ccc(NC(=O)c2ccc(CN3CCN(C)CC3)cc2)cc1Nc1nccc(-c2cccnc2)n1 [Imatinib] + COc1cccc2cc(-c3nc([C@H]4CC[C@H](C(=O)O)CC4)n4ncnc(N)c34)[nH]c12 [OSI-027] (partner 0.5 µM)
Procedure, shortened: as §1

Imatinib + Crizotinib = compound: Cc1ccc(NC(=O)c2ccc(CN3CCN(C)CC3)cc2)cc1Nc1nccc(-c2cccnc2)n1 [Imatinib] + C[C@@H](Oc1cc(-c2cnn(C3CCNCC3)c2)cnc1N)c1c(Cl)ccc(F)c1Cl [Crizotinib] (partner 1 µM)
Procedure, shortened: as §1

| Cell Line | relative viability (Imatinib + Luminespib; first compound 0.02 µM) | relative viability (Imatinib + Luminespib; first compound 0.06325 µM) | relative viability (Imatinib + Luminespib; first compound 0.2 µM) | relative viability (Imatinib + Luminespib; first compound 0.6325 µM) | relative viability (Imatinib + Luminespib; first compound 2 µM) | relative viability (Imatinib + Olaparib; first compound 0.02 µM) | relative viability (Imatinib + Olaparib; first compound 0.06325 µM) | relative viability (Imatinib + Olaparib; first compound 0.2 µM) | relative viability (Imatinib + Olaparib; first compound 0.6325 µM) | relative viability (Imatinib + Olaparib; first compound 2 µM) | relative viability (Imatinib + OSI-027; first compound 0.02 µM) | relative viability (Imatinib + OSI-027; first compound 0.06325 µM) | relative viability (Imatinib + OSI-027; first compound 0.2 µM) | relative viability (Imatinib + OSI-027; first compound 0.6325 µM) | relative viability (Imatinib + OSI-027; first compound 2 µM) | relative viability (Imatinib + Crizotinib; first compound 0.02 µM) | relative viability (Imatinib + Crizotinib; first compound 0.06325 µM) | relative viability (Imatinib + Crizotinib; first compound 0.2 µM) | relative viability (Imatinib + Crizotinib; first compound 0.6325 µM) | relative viability (Imatinib + Crizotinib; first compound 2 µM) |
| --- | --- | --- | --- | --- | --- | --- | --- | --- | --- | --- | --- | --- | --- | --- | --- | --- | --- | --- | --- | --- |
| NCI-H650 | 0.887 | 0.67 | 0.641 | 0.796 | 0.769 | 0.432 | 0.405 | 0.392 | 0.431 | 0.383 | 0.557 | 0.496 | 0.51 | 0.544 | 0.459 | 0.708 | 0.913 | 0.916 | 0.656 | 0.812 |
| NCI-H2170 | 0.901 | 0.395 | 0.526 | 0.502 | 0.735 | 0.635 | 0.585 | 0.663 | 0.69 | 0.578 | 0.67 | 0.602 | 0.769 | 0.584 | 0.625 | 1.5 | 1.49 | 1.52 | 1.3 | 1.22 |
| NCI-H441 | 0.37 | 0.326 | 0.448 | 0.304 | 0.309 | 0.577 | 0.793 | 0.554 | 0.6 | 0.635 | 0.675 | 0.561 | 0.632 | 0.581 | 0.563 | 0.659 | 0.796 | 0.796 | 0.879 | 0.737 |
| HCC-366 | – | – | – | – | – | 0.427 | 0.336 | 0.389 | 0.335 | 0.346 | 1.01 | – | 1.05 | 0.812 | 0.748 | 1.19 | – | 0.777 | 0.334 | 0.399 |
| NCI-H2009 | 1.15 | – | 0.888 | 1.08 | 0.934 | 0.692 | 0.882 | 0.796 | 0.671 | 0.661 | 0.666 | – | 0.672 | 0.623 | 0.582 | 1.09 | 1.23 | 0.975 | 1.02 | 1.04 |
| NCI-H1792 | 0.519 | 0.321 | 0.432 | 0.447 | 0.365 | 0.477 | 0.481 | 0.225 | – | 0.33 | 0.84 | 0.549 | 0.697 | 0.162 | 0.673 | 1.4 | – | 0.931 | 0.92 | 0.946 |
| SW 900 | 0.201 | 0.146 | 0.168 | 0.175 | 0.161 | 0.909 | 1.08 | 1.05 | 0.711 | 0.731 | 0.564 | 0.397 | 0.548 | 0.583 | 0.496 | – | – | – | – | – |
| COR-L23 | 0.806 | 0.709 | 0.79 | 0.802 | 0.654 | 0.394 | 0.367 | 0.363 | 0.383 | 0.308 | 0.869 | 0.831 | 0.853 | 0.824 | 0.64 | 0.807 | 0.73 | 0.809 | 0.685 | 0.632 |
| SK-LU-1 | 0.212 | 0.222 | 0.201 | 0.243 | 0.188 | 0.379 | 0.457 | 0.462 | – | – | 0.332 | 0.409 | 0.319 | 0.264 | 0.365 | 1.04 | 0.927 | 1.11 | 0.926 | 1.04 |
| NCI-H23 | 0.248 | 0.225 | 0.221 | 0.185 | 0.189 | 0.384 | 0.287 | 0.32 | 0.376 | 0.32 | 0.62 | 0.606 | 0.551 | 0.598 | 0.496 | 0.573 | 0.712 | 0.584 | 0.374 | 0.398 |
| NCI-H1944 | 0.831 | 0.655 | – | 0.665 | 0.787 | 0.448 | 0.337 | 0.414 | 0.394 | 0.459 | 0.423 | 0.267 | 0.403 | 0.425 | 0.381 | 1.24 | – | – | 0.935 | – |
| NCI-H661 | 0.931 | 1.03 | 1.01 | 0.934 | 0.874 | 0.747 | 0.94 | 0.853 | 0.773 | 0.703 | 0.738 | 0.818 | 0.802 | 0.645 | 0.695 | – | 0.806 | 1.05 | – | 0.869 |
| NCI-H1395 | 0.79 | 0.697 | 0.653 | 0.737 | 0.676 | 0.455 | – | 0.405 | 0.428 | 0.409 | 0.63 | 0.443 | 0.705 | 0.581 | 0.606 | – | – | – | – | – |
| LCLC-97TM1 | 0.89 | – | 0.864 | 0.889 | 0.813 | 0.539 | – | 0.269 | 0.419 | 0.33 | 0.562 | – | 0.577 | 0.542 | 0.444 | – | – | 0.358 | 0.34 | 0.407 |
| EPLC-272H | 0.312 | – | 0.456 | 0.306 | 0.14 | 0.669 | – | – | 0.795 | 0.732 | 0.265 | – | 0.273 | 0.311 | 0.249 | 0.973 | – | 1.16 | – | 1.03 |
